These results are taken from patent publication US7741341B2, “Benzimidazole-derivatives as factor Xa inhibitors” (sanofi-aventis Deutschland GmbH, priority 2003, dated 2010).

pKi: −log10 of the molar value.

T1 sequence (P00742 235-488 limits assumed): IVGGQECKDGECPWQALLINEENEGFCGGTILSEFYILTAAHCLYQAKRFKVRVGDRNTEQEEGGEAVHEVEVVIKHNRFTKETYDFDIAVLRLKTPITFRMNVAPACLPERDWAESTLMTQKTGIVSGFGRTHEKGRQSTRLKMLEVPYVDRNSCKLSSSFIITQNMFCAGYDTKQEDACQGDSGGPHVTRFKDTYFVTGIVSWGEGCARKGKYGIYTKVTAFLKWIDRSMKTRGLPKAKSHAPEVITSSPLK
T1 sequence (P00742 41-179 partner limits assumed): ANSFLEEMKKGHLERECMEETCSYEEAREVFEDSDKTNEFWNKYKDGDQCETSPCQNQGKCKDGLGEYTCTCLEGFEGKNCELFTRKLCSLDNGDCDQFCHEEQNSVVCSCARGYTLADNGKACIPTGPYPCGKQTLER

The assay concerns the target T1, human factor Xa (Homo sapiens, UniProt P00742).
T1 construct: human factor Xa (Enzyme Research Laboratories, Inc; South Bend, Ind.); purchased Enzyme Research Laboratories, Inc; South Bend, Ind
Kind of assay: Factor Xa assay (chromogenic, substrate S-2765). In kind it is biochemical. The conditions noted are these: read-out: Ki(FXa). On the procedure:
Purified enzymes were used in chromogenic assays.
The IC50 was determined by combining in appropriate wells of a Costar half-area microtiter plate 25 μl human factor Xa (Enzyme Research Laboratories, Inc.; South Bend, Ind.) in TBS-PEG; 40 μl 10% (v/v) DMSO in TBS-PEG (uninhibited control) or various concentrations of the compound to be tested diluted in 10% (v/v) DMSO in TBS-PEG; and substrate S-2765 (N(α)-benzyloxycarbonyl-D-Arg-Gly-L-Arg-p-nitroanilide; Kabi Pharmacia, Inc.; Franklin, Ohio) in TBS-PEG.
The assay was performed by pre-incubating the compound of formula I plus enzyme for 10 min. Then the assay was initiated by adding substrate to obtain a final volume of 100 μl. […] The enzyme concentration was 0.5 nM and substrate concentration was 140 μM.
In the case of `CC(C)N1CCC(NC(=O)c2nc3c(C(=O)N4CC(O)C4)cccc3n2Cc2cc(-c3ccc(Cl)s3)on2)CC1` [Example 23, 1-[5-(5-Chloro-thiophen-2-yl)-isoxazol-3-ylmethyl]-4-(3-hydroxy-azetidine-1-carbonyl)-1H-benzoimidazole-2-carboxylic acid (1-isopropyl-piperidin-4-yl)-amide], the pKi (as a rule, the negative decadic logarithm of the Ki, by convention in mol/L) was 8.10.

Regarding `COC(=O)c1ccc2c(c1)nc(C(=O)NC1CCN(C(C)C)CC1)n2Cc1cc(-c2ccc(Cl)s2)on1` [Example 5a, 1-[5-(5-Chloro-thiophen-2-yl)-isoxazol-3-ylmethyl]-2-(1-isopropyl-piperidin-4-ylcarbamoyl)-1H-benzoimidazole-5-carboxylic acid methyl ester], the pKi was 8.60.

Regarding `CC(C)N1CCC(NC(=O)c2nc3cc(S(=O)(=O)CCO)ccc3n2Cc2cc(-c3ccc(Cl)s3)on2)CC1` [Example 29a, 1-[5-(5-Chloro-thiophen-2-yl)-isoxazol-3-ylmethyl]-5-(2-hydroxy-ethanesulfonyl)-1H-benzoimidazole-2-carboxylic acid (1-isopropyl-piperidin-4-yl)-amide], the negative-log Ki (pKi) is 7.59.

For `COCCOC(=O)c1cccc2c1nc(C(=O)NC1CCN(C(C)C)CC1)n2CC(=O)Nc1ccc(Cl)cn1` [Example 70, 1-[(5-Chloro-pyridin-2-ylcarbamoyl)-methyl]-2-(1-isopropyl-piperidin-4-ylcarbamoyl)-1H-benzoimidazole-4-carboxylic acid 2-methoxy-ethyl ester], the negative-log Ki (pKi) was 7.82.

Consider `CC(OC(=O)OC1CCCCC1)OC(=O)c1ccc2c(c1)nc(C(=O)NC1CCN(C(C)C)CC1)n2Cc1cc(-c2ccc(Cl)s2)on1` (centres unmarked) [Example 28, 1-[5-(5-Chloro-thiophen-2-yl)-isoxazol-3-ylmethyl]-2-(1-isopropyl-piperidin-4-ylcarbamoyl)-1H-benzoimidazole-5-carboxylic acid 1-cyclohexyloxycarbonyloxy-ethyl ester], for which the pKi was 7.32.

Turning to `O=C(Cn1c(C(=O)Nc2ccc(N3CCNCC3=O)cc2)nc2ccccc21)Nc1ccc(Cl)cn1` [Example 51, 1-[(5-Chloro-pyridin-2-ylcarbamoyl)-methyl]-1H-benzoimidazole-2-carboxylic acid [4-(2-oxo-piperazin-1-yl)-phenyl]-amide], the pKi was 6.29.

Turning to `CCOCCOc1cccc2c1nc(C(=O)NC1CCN(C(C)C)CC1)n2CC(=O)Nc1ccc(Cl)cn1` [Example 109, 1-[(5-Chloro-pyridin-2-ylcarbamoyl)-methyl]-4-(2-ethoxy-ethoxy)-1H-benzoimidazole-2-carboxylic acid (1-isopropyl-piperidin-4-yl)-amide], the pKi was 8.46.

`COC(=O)c1cccc2c1nc(C(=O)Nc1ccc(N3CCOCC3=O)cc1)n2CC(=O)Nc1ccc(Cl)cn1` [Example 36, 1-[(5-Chloro-pyridin-2-ylcarbamoyl)-methyl]-2-[4-(3-oxo-morpholin-4-yl)-phenylcarbamoyl]-1H-benzoimidazole-4-carboxylic acid methyl ester]: the negative-log Ki (pKi) is 7.50.

For the molecule `CC(C)N1CCC(NC(=O)c2nc3c(C(=O)N4CCCOCC4)cccc3n2CC(=O)Nc2ccc(Cl)cn2)CC1` [Example 74, 1-[(5-Chloro-pyridin-2-ylcarbamoyl)-methyl]-4-([1,4]oxazepane-4-carbonyl)-1H-benzoimidazole-2-carboxylic acid (1-isopropyl-piperidin-4-yl)-amide], the negative-log Ki (pKi) is 7.98.

As for `CN1C2CCC1CC(NC(=O)c1nc3ccccc3n1Cc1cc(-c3ccc(Cl)s3)on1)C2` (centres unmarked) [Example 40, 1-[5-(5-Chloro-thiophen-2-yl)-isoxazol-3-ylmethyl]-1H-benzoimidazole-2-carboxylic acid (8-methyl-8-aza-bicyclo[3.2.1]oct-3-yl)-amide], the pKi was 7.70.

For the molecule `CC(C)N1CCC(NC(=O)c2nc3cccnc3n2Cc2cc(-c3ccc(Cl)s3)on2)CC1` [Example 14, 3-[5-(5-Chloro-thiophen-2-yl)-isoxazol-3-ylmethyl]-3H-imidazo[4,5-b]pyridine-2-carboxylic acid (1-isopropyl-piperidin-4-yl)-amide], the pKi was 5.62.

For the molecule `CC(C)N1CCC(NC(=O)c2nc3cccc(C(=O)O)c3n2Cc2cc(-c3ccc(Cl)s3)on2)CC1` [Example 13, 3-[5-(5-Chloro-thiophen-2-yl)-isoxazol-3-ylmethyl]-2-(1-isopropyl-piperidin-4-ylcarbamoyl)-3H-benzoimidazole-4-carboxylic acid], the pKi is 6.52.

As to `O=C1CCN(c2ccc(NC(=O)c3nc4ccccc4n3Cc3cc(-c4ccc(Cl)s4)on3)cc2)CC1` [Example 45, 1-[5-(5-Chloro-thiophen-2-yl)-isoxazol-3-ylmethyl]-1H-benzoimidazole-2-carboxylic acid [4-(4-oxo-piperidin-1-yl)-phenyl]-amide], the pKi was 6.68.

Regarding `COC(=O)c1ccc2nc(C(=O)NC3CCN(C(C)C)CC3)n(CC(=O)Nc3ccc(Cl)cn3)c2c1` [Example 17b, 3-[(5-Chloro-pyridin-2-ylcarbamoyl)-methyl]-2-(1-isopropyl-piperidin-4-ylcarbamoyl)-3H-benzoimidazole-5-carboxylic acid methyl ester], the negative logarithm of the Ki (pKi) is 6.43.

Take `CC(C)N1CCC(NC(=O)c2nc3cc(C(=O)N4CC(O)C4)ccc3n2Cc2cc(-c3ccc(Cl)s3)on2)CC1` [Example 26, 1-[5-(5-Chloro-thiophen-2-yl)-isoxazol-3-ylmethyl]-5-(3-hydroxy-azetidine-1-carbonyl)-1H-benzoimidazole-2-carboxylic acid (1-isopropyl-piperidin-4-yl)-amide]: the pKi was 7.73.

Turning to `CC(C)N1CCC(NC(=O)c2nc3c(C(=O)N(C)CCO)cccc3n2CC(=O)Nc2ccc(Cl)cn2)CC1` [Example 31, 1-[(5-Chloro-pyridin-2-ylcarbamoyl)-methyl]-1H-benzoimidazole-2,4-dicarboxylic acid 4-[(2-hydroxy-ethyl)-methyl-amide] 2-[(1-isopropyl-piperidin-4-yl)-amide]], the negative logarithm of the Ki (pKi) is 7.81.

As for `CCOC(=O)OC(C)OC(=O)c1ccc2c(c1)nc(C(=O)NC1CCN(C(C)C)CC1)n2Cc1cc(-c2ccc(Cl)s2)on1` (centres unmarked) [Example 27, 1-[5-(5-Chloro-thiophen-2-yl)-isoxazol-3-ylmethyl]-2-(1-isopropyl-piperidin-4-ylcarbamoyl)-1H-benzoimidazole-5-carboxylic acid 1-ethoxycarbonyloxy-ethyl ester], the pKi was 7.90.

Consider `O=C(Cn1c(C(=O)Nc2ccc(N3CCOCC3=O)cc2)nc2c(C(=O)O)cccc21)Nc1ccc(Cl)cn1` [Example 53, 1-[(5-Chloro-pyridin-2-ylcarbamoyl)-methyl]-2-[4-(3-oxo-morpholin-4-yl)-phenylcarbamoyl]-1H-benzoimidazole-4-carboxylic acid], for which the negative-log Ki (pKi) was 7.40.

Take `CC(C)N1CCC(NC(=O)c2nc3ccccc3n2Cc2cc(-c3ccc(Cl)s3)on2)CC1` [Example 1, 1-[5-(5-Chloro-thiophen-2-yl)-isoxazol-3-ylmethyl]-1H-benzoimidazole-2-carboxylic acid (1-isopropyl-piperidin-4-yl)-amide]: the pKi is 9.15.

Consider `CC(C)N1CCC(NC(=O)c2nc3c(C(=O)O)cccc3n2CC(=O)Nc2ccc(Cl)cn2)CC1` [Example 16, 1-[(5-Chloro-pyridin-2-ylcarbamoyl)-methyl]-2-(1-isopropyl-piperidin-4-ylcarbamoyl)-1H-benzoimidazole-4-carboxylic acid], for which the pKi is 7.96.
